Here are results for 7 compounds from patent publication US20140212382A1, “PURINE MONOPHOSPHATE PRODRUGS FOR TREATMENT OF VIRAL INFECTIONS” (EMORY UNIVERSITY, priority 2011, published 2014).

In one data set the test system is HepG2 Hepatoma cells. The data set is described as follows: Lactic acid production in HepG2 cells. In kind it is cell-based. As to conditions: 10 μM, 14 day assay. The protocol: The effect on the growth of HepG2 cells was determined by incubating cells in the presence of 0 μM, 0.1 μM, 1 μM, 10 μM and 100 μM drug. Cells (5×10^4 per well) were plated into 12-well cell culture clusters in minimum essential medium with nonessential amino acids supplemented with 10% fetal bovine serum, 1% sodium pyruvate, and 1% penicillin/streptomycin and incubated for 4 days at 37° C. At the end of the incubation period the cell number was determined using a hemocytometer. Also taught by Pan-Zhou X-R, Cui L, Zhou X-J, Sommadossi J-P, Darley-Usmer V M. “Differential effects of antiretroviral nucleoside analogs on mitochondrial function in HepG2 cells” Antimicrob. Agents Chemother. 2000; 44: 496-503. […] At day 4 the number of cells in each well was determined and the culture medium collected. The culture medium was filtered, and the lactic acid content in the medium determined using a colorimetric lactic acid assay (Sigma-Aldrich). Since lactic acid product can be considered a marker for impaired mitochondrial function, elevated levels of lactic acid production detected in cells grown in the presence of 2,6-diamino 2′-C-Me purine nucleoside monophosphate prodrug analogs would indicate a drug-induced cytotoxic effect.
The effect of compounds 8b-up, 12, and 8a on nuclear or mitochondrial DNA, or lactic acid production, in HepG2 Hepatoma cells was analyzed over a 14 day period. […]

Data set [1] has as its system MtDNA, HepG2 Hepatoma cells. Description: Mitochondrial toxicity in HepG2 cells: mitochondrial DNA content. In kind it is cell-based. As to conditions: 10 μM; HepG2 Hepatoma cells, 14 day assay. The text has this:
A real-time PCR assay to accurately quantify mitochondrial DNA content has been developed (see Stuyver L J, Lostia S, Adams M, Mathew J S, Pai B S, Grier J, Tharnish P M, Choi Y, Chong Y, Choo H, Chu C K, Otto M J, Schinazi R F. Antiviral activities and cellular toxicities of modified 2′,3′-dideoxy-2′,3′-didehydrocytidine analogs. Antimicrob. Agents Chemother. 2002; 46: 3854-60). This assay was used in all studies described in this application that determine the effect of nucleoside analogs on mitochondrial DNA content. In this assay, low-passage-number HepG2 cells were seeded at 5,000 cells/well in collagen-coated 96-well plates. Nucleoside monophosphate analogs were added to the medium to obtain final concentrations of 0 μM, 0.1 μM, 10 μM and 100 μM. On culture day 7, cellular nucleic acids were prepared by using commercially available columns (RNeasy 96 kit; Qiagen). […] The mitochondrial cytochrome c oxidase subunit II (COXII) gene and the β-actin or rRNA gene were amplified from 5 μl of the eluted nucleic acids using a multiplex Q-PCR protocol with suitable primers and probes for both target and reference amplifications. For COXII the following sense, probe and antisense primers are used, respectively: 5′-[…]-3′,5′-tetrachloro-6-carboxyfluorescein-[…]-TAMRA-3′ and 5′-[…]-3′. For exon 3 of the β-actin gene (GenBank accession number E01094) the sense, probe, and antisense primers are 5′-[…]-3′,5′-6-[…]-3′ and 5′-[…]-3′, respectively. The primers and probes for the rRNA gene are commercially available from Applied Biosystems. Since equal amplification efficiencies were obtained for all genes, the comparative CT method was used to investigate potential inhibition of mitochondrial DNA synthesis. The comparative CT method uses arithmetic formulas in which the amount of target (COXII gene) is normalized to the amount of an endogenous reference (the β-actin or rRNA gene) and is relative to a calibrator (a control with no drug at day 7). The arithmetic formula for this approach is given by 2-ΔΔCT, where ΔΔCT is (CT for average target test sample−CT for target control)−(CT for average reference test−CT for reference control) (see Johnson M R, K Wang, J B Smith, M J Heslin, R B Diasio. Quantitation of dihydropyrimidine dehydrogenase expression by real-time reverse transcription polymerase chain reaction. Anal. Biochem. 2000; 278:175-184). A decrease in mitochondrial DNA content in cells grown in the presence of drug would indicate mitochondrial toxicity.
(§1) The effect of compounds 8b-up, 12, and 8a on nuclear or mitochondrial DNA, or lactic acid production, in HepG2 Hepatoma cells was analyzed over a 14 day period. The procedure outlined in section (i) above was used for this analysis.

The subject of another data set is adenosine deaminase. The data set is described as follows: Adenosine deaminase assay. In kind it is in vitro ADME. The settings on record: 7 minutes with 0.002 units of enzyme; 50 μM, pH 7.4, 25° C. On the procedure: To determine the propensity for deamination of the nucleosides and monophosphate prodrugs by adenosine deaminase, nucleoside analogues can be incubated with the commercially available purified enzyme, and the reaction can be followed spectrophotometrically. Typical reaction conditions involve preparing a solution containing 50 μM nucleoside analog in 0.5 mL 50 mM potassium phosphate (pH 7.4) at 25° C. The typical reaction time is 7 minutes with 0.002 units of enzyme, and 120 minutes with 0.2 units of enzyme. (The unit definition of adenosine deaminase is one unit will deaminate 1.0 μmol of adenosine to inosine per minute at pH 7.5 at 25° C.) Deoxyadenosine is typically used as a positive control. Deoxyadenosine is 59% deaminated under the given conditions in 7 minutes with 0.002 units of enzyme. Deoxyguanosine is typically used as a negative control. Optical density can be measured at 265 nm or 285 nm. The difference in optical density between the beginning and the end of the experiment is divided by the extinction coefficient, and then multiplied by the volume of the reaction to determine the number of mols of substrate transformed into product. Mols of product would be divided by mols of substrate equivalent to a 100% complete reaction then multiplied by 100 to obtain percent deamination. The limit of detection is typically 0.001 optical density units.

The test system of data set [2] is nuclear DNA, HepG2 Hepatoma cells. The data set is described as follows: Mitochondrial toxicity in HepG2 cells: nuclear DNA content. As to conditions: 10 μM; HepG2 Hepatoma cells, 14 day assay. In kind it is cell-based. The protocol: This assay was used in all studies described in this application that determine the effect of nucleoside analogs on mitochondrial DNA content. In this assay, low-passage-number HepG2 cells were seeded at 5,000 cells/well in collagen-coated 96-well plates. […] On culture day 7, cellular nucleic acids were prepared by using commercially available columns (RNeasy 96 kit; Qiagen). […] The mitochondrial cytochrome c oxidase subunit II (COXII) gene and the β-actin or rRNA gene were amplified from 5 μl of the eluted nucleic acids using a multiplex Q-PCR protocol with suitable primers and probes for both target and reference amplifications. […] For exon 3 of the β-actin gene (GenBank accession number E01094) the sense, probe, and antisense primers are 5′-[…]-3′,5′-6-[…]-3′ and 5′-[…]-3′, respectively. The primers and probes for the rRNA gene are commercially available from Applied Biosystems. […] The comparative CT method uses arithmetic formulas in which the amount of target (COXII gene) is normalized to the amount of an endogenous reference (the β-actin or rRNA gene) and is relative to a calibrator (a control with no drug at day 7). The arithmetic formula for this approach is given by 2-ΔΔCT, where ΔΔCT is (CT for average target test sample−CT for target control)−(CT for average reference test−CT for reference control) (see Johnson M R, K Wang, J B Smith, M J Heslin, R B Diasio. Quantitation of dihydropyrimidine dehydrogenase expression by real-time reverse transcription polymerase chain reaction. Anal. Biochem. 2000; 278:175-184). A decrease in mitochondrial DNA content in cells grown in the presence of drug would indicate mitochondrial toxicity.
as §1

Data set [3] is described as follows: Cytotoxicity assay, CEM cells. In kind it is cell-based. As to conditions: human. The protocol:
(§2) The toxicity of the compounds was assessed in Vero, human PBM, CEM (human lymphoblastoid), and HepG2 cells, as described previously (see Schinazi R. F., Sommadossi J.-P., Saalmann V., Cannon D. L., Xie M.-Y., Hart G. C., Smith G. A. & Hahn E. F. Antimicrob. Agents Chemother. 1990, 34, 1061-67). Cycloheximide was included as positive cytotoxic control, and untreated cells exposed to solvent would be included as negative controls. The cytotoxicity IC50 was obtained from the concentration-response curve using the median effective method described previously (see Chou T.-C. & Talalay P. Adv. Enzyme Regul. 1984, 22, 27-55; Belen'kii M. S. & Schinazi R. F. Antiviral Res. 1994, 25, 1-11).

A short description of data set [4]: Cytotoxicity assay, Vero cells. In kind it is cell-based. The settings on record: African green monkey. The protocol: as §2
Data set [5] is described as follows: Cytotoxicity assay, PBM cells. In kind it is cell-based. As to conditions: human. On the procedure: as §2
For a further data set, the system named is HepG2 cells. As to conditions: 10 μM; cited from earlier work.

A word on the CC50: it is the concentration giving 50% cytotoxicity. Read a high CC50 as better tolerance by the cells.

Regarding `Nc1ccn([C@@H]2CS[C@H](CO)O2)c(=O)n1` [Compound 3TC, reference compound], the “Lactic acid levels (% of control) ± SD” value with HepG2 Hepatoma cells is 91 ± 2.5 % of control. Moreover, the “% Inhibition MtDNA” value in data set [1] is <1/<1%.
In the data set with adenosine deaminase, `Nc1ncnc2c1ncn2[C@H]1C[C@H](O)[C@@H](CO)O1` [Deoxyadenosine] displayed a percent deamination of 59%.
In the case of `Nc1ccn([C@H]2CC[C@@H](CO)O2)c(=O)n1` [ddC, reference compound], the “% Inhibition nuclear DNA” value in data set [2] is 72%. The “Lactic acid levels (% of control) ± SD” value in the data set with HepG2 Hepatoma cells was 220 ± 11 % of control. Besides, in data set [1], the “% Inhibition MtDNA” value is listed as 100%.
On to `CC1(O)C(O)[C@@H](CO)O[C@H]1n1cnc2c(N)nc(N)nc21` (stereo partly shown) [drawing 52], for which the CC50 in data set [3] (CEM lymphoblastoid cells), in data set [4] (Vero cells) and in data set [5] (PBM cells) was > 100 µM each time.
With `CCOC(=O)[C@H](C)NP(=O)(OC[C@H]1O[C@@H](n2cnc3c(N)nc(N)nc32)C(C)(O)C1O)Oc1ccccc1` (stereo partly shown) [drawing 53], the CC50 in data set [3] (CEM), in data set [4] (Vero) and in data set [5] (PBM) was > 100 µM in each case.
On to `CCOC(=O)CCc1ccccc1OP(=O)(N[C@H](C)C(=O)OCC)OC[C@H]1O[C@@H](n2cnc3c(N)nc(N)nc32)C(C)(O)C1O` (stereo partly shown) [drawing 54], for which the CC50 in data set [3] (CEM), in data set [4] (Vero) and in data set [5] (PBM) was > 100 µM in each case.
For `O=c1[nH]c(=O)n([C@@H]2O[C@H](CO)[C@@H](O)[C@@H]2F)cc1I` [fialuridine, 1,2′-deoxy-2′-fluoro-1-D-arabinofuranosly-5-iodo-uracil], in the data set on HepG2 cells, the “morphological changes in mitochondria (electron micrographs)” value was “presence of enlarged mitochondria with morphological changes consistent with mitochondrial dysfunction”.
